In article PMC3510080, “Identification of Compounds with Anti-Proliferative Activity against Trypanosoma brucei brucei Strain 427 by a Whole Cell Viability Based HTS Campaign” (PLoS Neglected Tropical Diseases, 2012):
“And” between values parts separate entries of the source, which are not always exact repeats. Equal values may be shown once. Read-outs that look alike come from different tables or passages of the source.

What was measured:
[1] = test system: T.b. brucei bloodstream form lister 427; experiment: T.b. brucei Alamar Blue viability estimation assay (384-well HTS, retest and rescreen); format: cell-based, Trypanosoma brucei brucei; conditions: for Estimated Selectivity Index: retest campaign; for Primary Screening Activity 10.2µM (%): single point, inhibition relative to controls
Experimental: T.b. brucei lister 427 cells were maintained in log phase growth in 25 cm^2 tissue culture flasks (Corning, NY, USA) by sub-culturing at either 24 or 48 hour intervals. Cells were grown in HMI-9 medium, supplemented with 10% fetal calf serum (FCS) and 100 IU/ml penicillin/streptomycin (Invitrogen, Carlsbad, California, USA) with incubation at 5% CO2 at 37°C in humidified conditions. HEK293 cells were maintained in high glucose DMEM with L-glutamine, supplemented with 1× non-essential amino acids (NEAA; Invitrogen, USA) and 1 mM sodium pyruvate. Growth conditions were in 5% CO2 at 37°C, under humidified conditions.
All reagent and cell additions were made with a Multidrop liquid handler (Thermo Scientific, Newington, NH, USA) under sterile conditions. Fifty-five microliters of 2000 cells/mL of T.b. brucei in HMI-9 medium were added to a black, clear-bottomed 384-well lidded plate (BD Biosciences, Franklin Lanes, NJ, USA). Cells were incubated for 24 hours at 37°C in an atmosphere of 5% CO2 before addition of 5 µl of compounds/DMSO for control wells. Compounds suspended in 100% DMSO or 100% DMSO as controls were pre-diluted 1∶21 in high glucose DMEM without FCS by using a Minitrack robotic liquid handler (PerkinElmer, Waltham, MA, USA). Five microliters of diluted sample was added to the plate to give a final DMSO concentration of 0.417% in the assay. Cells were incubated for an additional 48 hours at 37°C. Ten microliters of 70% Alamar Blue (Biosource, Bethesda, MD, USA) was added to each well (diluted in HMI-9 medium supplemented with 10% FCS) to a final concentration of 10% in the assay. The plate was incubated for two hours under the same conditions, then incubated for 22 hours in the dark at room temperature. Wells were read at 535 nm (excitation) and 590 nm (emission) wavelengths on a Victor II Wallac plate reader (PerkinElmer, USA). Specific dilutions are explained further in the primary and retest assay methodology. Reference drugs used in the assay were pentamidine (Sigma-Aldrich, St Louis, MO, USA), diminazene aceturate (Sigma-Aldrich, USA) and puromycin (Calbiochem, San Deigo, CA, USA). Pentamidine is used to treat patients with HAT and diminazene is a veterinary drug used against T.b. brucei to combat infections in cattle.
Primary screening of the library, consisting of 87,296 compounds in two hundred and forty eight 384-well plates, was undertaken in single point against T.b. brucei. Stock solutions consisted of test compound at a concentration of 5 mM in 100% DMSO. One µl of each compound stock solution was diluted by the addition of 40 µl of dilution medium (high glucose DMEM without FCS) by a multidrop liquid handler (Thermo Scientific, USA). A 5 µl sample of this diluted solution was then added to the trypanosome assay plate. The final concentration of test compound in the assay was […] and that of DMSO was 0.42% v/v. Compounds were screened over a total of 11 days, at an average of 80 plates per day, taking into consideration that the assay incubation was 3 days total. Test compounds were added to plates in batches of 20 at two hour intervals, to maintain the timing of additions and reads.
Compound activity was calculated as the percentage inhibition in relation to positive and negative controls. […] These in-plate negative controls were used in an effort to normalise compound activity in relation to any plate to plate variation in the assay signal. A whole 384-well control plate was included in each day's screening, one per 20 compound plates containing half a plate of 2 µM pentamidine for the positive assay control, and half a plate of 0.42% v/v DMSO as a negative control. The positive assay control was used to calculate compound activity for batches of 20 compound plates. As well providing the positive control data, these whole plate controls were used for the calculation of the Z' to measure the reproducibility of the assay.

[2] = test system: T. cruzi Tulahuen strain C2C4; experiment: T. cruzi Tulahuen strain C2C4 β-galactosidase assay; SI versus L6 cells; format: cell-based, Trypanosoma cruzi; conditions: for IC50: in L6 host cells, 96 h, read-out: Compound activity T.C (IC50); for Selectivity Index T.C: relative to L6 cells
Experimental: L6 rat skeletal myoblasts, [29] were purchased from the American Type Culture Collection (ATCC, Rockville, MD, USA; ATCC number CRL 1458). This cell line was used for cytotoxicity testing to calculate an SI against T.b. rhodesiense and screened alongside the T.b. rhodesiense, P. falciparum, T. cruzi and L. donovani assays. L6 were also the host cells for the T. cruzi assay. Assays were performed in 96-well microtiter plates, each well containing 100 µl of RPMI 1640 medium supplemented with 1% L-glutamine (200 mM), 10% FCS, and 4000 L6 cells. Serial drug dilutions of eleven 3-fold dilution steps covering a range from 100 to 0.002 µg/ml were prepared. After 70 hours of incubation the plates were inspected under an inverted microscope to assure growth of the controls and sterile conditions. Ten µl of resazurin solution (resazurin, 12.5 mg in 100 ml double-distilled water) was then added to each well and the plates incubated for another 2 hours. Then the plates were read with a Spectramax Gemini XS microplate fluorometer (Molecular Devices Cooperation, Sunnyvale, CA, USA) using an excitation wavelength of 536 nm and an emission wavelength of 588 nm. Data was analysed using the microplate reader software Softmax Pro (Molecular Devices, USA). Podophyllotoxin was used as a positive control in the assay.
Rat skeletal myoblasts (L6 cells) were seeded in 96-well microtitre plates at 2000 cells/well in 100 µl RPMI 1640 medium with 10% FCS and 2 mM l-glutamine. After 24 hours the medium was removed and replaced by 100 µl per well containing 5000 trypomastigote forms of T. cruzi Tulahuen strain C2C4 containing the β-galactosidase (Lac Z) gene. After 48 hours the medium was removed from the wells and replaced by 100 µl fresh medium with or without a serial drug dilution of eleven 3-fold dilution steps covering a range from 100 to 0.002 µg/ml. After 96 hours of incubation the plates were inspected under an inverted microscope to assure growth of the controls and sterility. Then 50 µl of the substrate, containing chlorophenol red-β-D-galactopyranoside (CPRG) and Nonidet, was added to all wells. A colour reaction developed within 2–6 hours that could be read photometrically at 540 nm. Data were transferred into the graphic programme Softmax Pro (Molecular Devices, USA), which calculated IC50 values. The drug benznidazole was used as a positive standard in this assay.

[3] = HEK293 IC50 / T.b. brucei IC50, > if less than 50% activity at 75.8 µM in HEK293
[4] = Trypanosoma brucei, Alamar Blue-based HTS assay format, run with time to kill study, read-out: Activity (IC50 value) AB assay
[5] = Trypanosoma brucei, re-synthesised/re-purchased compounds, three experiments, two replicates each, read-out: Compound activity T.B (IC50)
[6] = Trypanosoma brucei, retest campaign from stock solutions, duplicate, read-out: Retest IC50 T.b.brucei
[7] = re-synthesised/re-purchased compounds, three experiments, two replicates each, read-out: Compound activity T.B (IC50)
[8] = Trypanosoma cruzi, TULAHUEN, L6, 96 h
[9] = Trypanosoma brucei, read-out: Activity (IC50 value) AB assay, Alamar Blue-based HTS assay format, run with time to kill study
[10] = Trypanosoma brucei, read-out: Compound activity T.B (IC50), re-synthesised/re-purchased compounds, three experiments, two replicates each
[11] = Trypanosoma brucei, 13 control plates, triplicate dose-response, read-out: IC50 of reference compounds, primary screening campaign
[12] = Trypanosoma brucei, reference compounds, read-out: IC50 against T.b. brucei, retest screening campaign

CC(C)(C)C(=O)NCCc1csc(-c2cccc(F)c2)n1 [Compound 1]
Selectivity Index T.B [1, 3]: >96.0
IC50 [1, 4]: 1.1 ± 0.0651 µM
IC50 [1, 5]: 0.79 µM
IC50 [1, 6]: 0.441 µM
IC50 [1, 7]: 0.785 ± 0.0829 µM
Estimated Selectivity Index ([1]; HEK293 IC50 / T.b. brucei IC50): 94.6
Primary Screening Activity 10.2µM (%) [1]: 100%
IC50 [2, 8]: 2.3 µM
IC50 [2]: 2.32 ± 0.0601 µM
Selectivity Index T.C [2]: 26.8

O=C(NCCc1n[nH]c(-c2ccc(F)cc2)n1)c1cccc(F)c1 [Compound 2]
IC50 [1, 5]: 4 ± 0.0555 µM
IC50 [1, 9]: 4.71 ± 0.272 µM
IC50 [1, 6]: 1.93 µM
Estimated Selectivity Index ([1]; HEK293 IC50 / T.b. brucei IC50): 21.6
Primary Screening Activity 10.2µM (%) [1]: 99.5%
IC50 [2, 8]: 19.3 ± 0.0905 µM
Selectivity Index T.C [2]: 6.20

CCOc1ccc(OCc2ccc(C(=O)N3CCCC(C)C3)cc2)cc1 (centres unmarked) [Compound 3]
Selectivity Index T.B [1, 3]: >67.1
IC50 [1, 5]: 1.1 µM
IC50 [1, 6]: 2.56 µM
IC50 [1, 7]: 1.13 ± 0.347 µM
Estimated Selectivity Index ([1]; HEK293 IC50 / T.b. brucei IC50): 16.3
Primary Screening Activity 10.2µM (%) [1]: 99%
IC50 [2, 8]: 19.1 ± 5.32 µM
Selectivity Index T.C [2]: 2.56

Cc1cc(O)nc(-n2nc(C)cc2NC(=O)C2CCCC2)n1 [Compound 4]
Selectivity Index T.B [1, 3]: 25 and 24.6
IC50 [1, 10]: 3.1 µM
IC50 [1, 7]: 3.08 ± 0.29 µM
IC50 [2, 8]: 15.4 ± 4.29 µM
Selectivity Index T.C [2]: 0.0588

CCS(=O)(=O)N1CCCc2ccc(NS(=O)(=O)c3ccccc3F)cc21 [Compound 5]
Selectivity Index T.B [1, 3]: >35.9
IC50 [1, 10]: 2.1 µM
IC50 [1, 7]: 2.11 ± 0.13 µM
IC50 [2, 8]: 14.8 ± 0.151 µM
Selectivity Index T.C [2]: 1.47

CCC(C)NC(=O)c1nc(-c2ccccc2)cnc1N (centres unmarked) [Compound 6]
Selectivity Index T.B [1, 3]: >65.3
IC50 [1, 5]: 1.2 µM
IC50 [1, 9]: 0.16 ± 0.0403 µM
IC50 [1, 7]: 1.16 ± 0.304 µM
IC50 [2, 8]: 19.1 ± 5.32 µM
Selectivity Index T.C [2]: 0.933

O=C(Nc1ccc(Cl)c(-c2nc3ncccc3o2)c1)c1ccco1 [Compound 7]
IC50 [1, 4]: 0.198 ± 0.00128 µM
IC50 [1, 10]: 0.22 µM
IC50 ([1]; Trypanosoma brucei, read-out: Retest IC50 T.b.brucei, retest campaign from stock solutions, duplicate): 0.169 µM
IC50 [1, 7]: 0.218 ± 0.00714 µM
Primary Screening Activity 10.2µM (%) [1]: 100%
IC50 [2, 8]: 0.23 ± 0.0496 µM

CCc1ccccc1N=C(NCCN1CCOCC1)NC(=O)c1ccccc1 [Compound 8]
Selectivity Index T.B [1, 3]: >29.0
IC50 [1, 5]: 2.6 µM
IC50 [1, 7]: 2.61 ± 0.32 µM
IC50 [2, 8]: 82 µM
IC50 [2]: 82.1 ± 1.69 µM
Selectivity Index T.C [2]: 1.61

N=C(N)c1ccc(OCCCCCOc2ccc(C(=N)N)cc2)cc1 [Pentamidine, pentamidine, reference compound]
Selectivity Index T.B [1]: >283
IC50 [1, 11]: 0.0147 ± 0.0047 µM
IC50 [1, 4]: 0.00581 ± 0.000707 µM
IC50 ([1]; Trypanosoma brucei, during rescreening of resynthesized compounds, read-out: Reference Compound Activity T.B (IC50)): 0.00352 ± 0.00036 µM
IC50 [1, 12]: 0.0078 ± 0.0036 µM

COc1ccc(C[C@H](N)C(=O)N[C@H]2[C@@H](O)[C@H](n3cnc4c(N(C)C)ncnc43)O[C@@H]2CO)cc1 [Puromycin, puromycin, reference compound]
Selectivity Index T.B [1]: 8.90
IC50 ([1]; 13 control plates, triplicate dose-response, read-out: IC50 of reference compounds, primary screening campaign): 0.0619 ± 0.0068 µM
IC50 [1, 11]: 0.0619 ± 0.0068 µM
IC50 [1, 4]: 0.0641 ± 0.00024 µM
IC50 ([1]; Trypanosoma brucei, read-out: Reference Compound Activity T.B (IC50), during rescreening of resynthesized compounds): 0.0584 ± 0.000769 µM
IC50 [1, 12]: 0.139 ± 0.0157 µM
Estimated Selectivity Index ([1]; HEK293 IC50 / T.b. brucei IC50): less than 10
